We go through 1 molecule from PMC6896172, “Successful Targeting of the Warburg Effect in Prostate Cancer by Glucose-Conjugated 1,4-Naphthoquinones” (Cancers, 2019).

Molecules are shown by their SMILES. pIC50: −log10 of the molar value.

In one assay the test system is 22Rv1 cells. Put plainly: Cell fractionation followed by Western blotting. Type of assay: cell-based, human. The note with it: 48 h. The procedure:
Preparation of protein extracts for western blotting was performed as described previously. In brief, for western blotting, 1 × 10^6 cells/well were seeded in Petri dishes (ø 6 cm TC Dish (Sarstedt, Numbrecht, Germany) in 5 mL/dish), incubated overnight and treated with drugs in 5 mL/dish for an indicated time. Cells were harvested using a cell scraper, pelleted, and resuspended in the lysis buffer containing protease and phosphatase inhibitors. Further sample preparation and western blotting were performed as previously described with slight modifications. Relative optical density of the detected bands was quantified with Quantity One 4.6 software (Bio-Rad, Hercules, CA, USA). The primary and secondary antibodies used are listed in the Supplementary Information.
22Rv1 cells were seeded in T75 culture bottles (4 × 10^6 cells/bottle in 20 mL/bottle), treated for 48 h and harvested by scratching. The further separation of cytosolic, mitochondrial and nuclear fractions was performed using the Cell Fractionation Kit ab109719 (abcam, Cambridge, MA) as previously described. Mitochondrial and cytosolic fractions were concentrated using Amicon® Ultra-2 Centrifugal Filter device (Cat. No. UFC203024, Merck, Darmstadt, Germany). Nuclear fractions were additionally homogenized using QIAshedder kit (QIAGEN, Hilden, Germany).

A further assay has as its system PNT2 cells. Put plainly: MTT cytotoxicity assay in PNT2 cells. Type of assay: cell-based, human. The note with it: 48 h of treatment. From the text:
For general experiments human prostate cancer cell lines PC-3 and DU145 (docetaxel-resistant, androgen-independent, AR-FL(−), AR-V7(−)), 22Rv1 and VCaP (docetaxel-sensitive, androgen-independent, AR-FL(+), AR-V7(+), and LNCaP (docetaxel sensitive, androgen-dependent, AR-FL(+), AR-V7(−) were used. PC-3, 22Rv1, LNCaP cells as well as the human prostate non-cancer cells PNT2 and RWPE-1 were purchased from ATCC (Manassas, VA, USA). VCaP were purchased from ECACC (Salisbury, UK). The human fibroblast cell line MRC-9, the human embryonic kidney cell line HEK 293T, as well as the human umbilical vascular endothelial cell line HUVEC were kindly donated by Prof. Dr. Dr. med. Sonja Loges (University Medical Center Hamburg-Eppendorf, Hamburg, Germany). Cells were cultured according to the manufacturers’ instructions and were recently authenticated by a commercial service (Multiplexion, Heidelberg, Germany). Culture conditions are described in the Supplementary Information.
(§1) MTT (3-(4,5-dimethylthiazol-2-yl)-2,5-diphenyltetrazolium bromide) cytotoxicity assay was used for the evaluation of cytotoxicity of the compounds or their combinations. Experiments were performed as previously described. In brief, 6000 cells/well were seeded in 96-well plate, incubated overnight, and treated with the drugs in 100 µL/well of 10% FBS/RPMI media containing 2 g/L of D-(+)-glucose for 48 h, unless otherwise stated. For 2 h treatment the cells were treated with the drugs for 2 h in the culture media, then the media was exchanged to fresh drug-free media (100 µL/well) containing MTT reagent and the further steps were performed as previously described.
Table S4. Cytotoxic activity of the synthesized compounds. Cytotoxicity was determined in human prostate cancer PC-3 cells versus human prostate non-cancer
PNT2 cells after 48 h of treatment, as well as its ratio. IC50 was evaluated using MTT assay. SI–selectivity index. #–the IC50s in both cell lines were >100 µM.
Anisomycin was used as a reference substance.
No Formula IC50(PC-3) IC50(PNT2) SI […]

For the next assay, the system named is LNCaP cells. Put plainly: MTT cytotoxicity assay in LNCaP cells. Type of assay: cell-based. The note with it: Homo sapiens, 48 h of treatment, cancer. The method, then:
Dr. Dr. med. Sonja Loges (University Medical Center Hamburg-Eppendorf, Hamburg, Germany). Cells were cultured according to the manufacturers’ instructions and were recently authenticated by a commercial service (Multiplexion, Heidelberg, Germany). Culture conditions are described in the Supplementary Information.
as §1
(Tetrazolium dyes change colour on reduction, which living cells bring about.)

Take `CC1(C)OC2OC(C(O)COC3=CC(=O)c4cccc(O)c4C3=O)C(O)C2O1` (stereo not shown) [Compound 11]: the “release of mitochondrial proteins AIF and cytochrome C” value in the assay with 22Rv1 cells is “release of mitochondrial proteins”. The pIC50 (in general, −log10 of the IC50, conventionally taken in molar units) in the assay on PNT2 cells is 5.30; with PNT2 cells (Homo sapiens, PNT2, 48 h) it was 5.30; in the assay on LNCaP cells it was 6.24.
